Drawing on US9115092B2, “Substituted quinazoline and pyrido-pyrimidine derivatives” (Asana Biosciences, LLC, priority 2010, dated 2015), this text covers IC50 for six molecules.

Where only a bound is given, the exact number is not on record here.

For experiment [1], the system named is pS6RP(S235/236), PC3 cells. The experiment in a line: In-cell Western assay, pS6RP(S235/236) in PC3 cells. The experiment is classed as cell-based, human. In short, it runs like this:
(§1)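 Overnight-seeded PC3 cells were treated 2 h with serially diluted compound, then fixed and immunostained with phospho-specific primary antibodies and Eu-labelled secondary. Time-resolved Eu signal read at 615 nm (ex 340 nm), normalised by Hoechst 33258 staining (ex 355/em 460 nm); IC50 from sigmoidal dose-response fit.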

Experiment [2] concerns pAKT(5473) (phosphorylated at serine 473), PC3 cells. The experiment in a line: In-cell Western assay, pAKT(5473) in PC3 cells. The format is cell-based. The conditions noted are these: Homo sapiens, PC-3, In-cell Western, read-out: pAkt-S473. In short, it runs like this: as §1
For experiment [3], the target named is PI3 kinase isoform β (Homo sapiens, UniProt P42338). Kind of experiment: PI3 Kinase TR-FRET assay, isoform β. The format is biochemical. The conditions noted are these: read-out: inhibition of PI3 kinase isoform β, IC50. The procedure: (§2) The ability of compounds of the invention to inhibit PI3K activity was determined in a homogeneous TR-FRET assay using a PI3K assay kit (Millipore, USA; cat #33-016) according to manufacturer's instructions. PI3-Kinases (isoforms α, β, γ and δ) catalyze the phosphorylation of phosphatidylinositol, PIP2 to PIP3 in the presence of ATP and Mg^2+. The PIP3 product is detected by displacement of biotin-PIP3 from an energy transfer complex consisting of Europium labeled anti-GST monoclonal antibody, a GST-tagged PH domain, biotinylated PIP3 and Streptavidin-APC. Excitation of Europium in the complex results in an energy transfer to the APC and a fluorescence emission at 665 nm. The PIP3 product displaces biotin-PIP3 from the complex resulting in a loss of energy transfer and thus a decrease in signal.
(§3) To test for the ability of compounds to inhibit the activity of PI3Kα (wild-type), exemplary compounds of formula (I) were dissolved in DMSO and directly distributed into 384-well plates at a volume of 0.5 μL. 14.5 μL of P110/P85α/PIP2 mixture in buffer (obtained from the Millipore kit) containing MgCl2 (40 mM) and DTT (5 mM) was added to compound wells and incubated for 60 min at room temperature. P110/P85α was expressed in SF9 insect cells and purified nickel column extraction. Five ng of wild-type P110/P85α was used in the assay. The kinase reaction was started by the addition of ATP. The assay concentrations of both PIP2 and ATP were 10 μM. The reaction mixture was incubated for 30 min at room temperature and was terminated by the addition of stop mix and detection mix. Fluorescence was measured at 615 and 665 nm upon excitation at 340 nm in a Victor™ V5 fluorometer (Perkin Elmer, USA). The fluorescence emission ratio at 665 to 615 nm, proportional to the kinase activity, was plotted against the compound concentration to generate dose-response curves and IC50 values were determined using GraphPad Prism® 5 software.
The activity of PI3 kinase isoforms β, γ and δ were assayed in a similar manner to the assay protocol described above for PI3Kα, by substituting the appropriate p110/p85 isoform for the p110α/p85α. Compounds of formula (I) caused inhibition of PI3 kinase isoforms β, γ and δ as determined by these assays. For example, the compounds of examples 3, 51, 54, 111, 113, 115, and 253 each caused inhibition of PI3 kinase isoform β with IC50 values <50 nM. The compounds of examples 104, 133, 146 and 152 each caused inhibition of PI3 kinase isoform β with IC50 values <500 nM. The compounds of examples 3, 51, 54, 104, 111, 113, 115, 133, 253, and 152 each caused inhibition of PI3 kinase isoform γ with IC50 values <500 nM. […] The compounds of examples 2, 3, 51, 54, 111, 113, and 253 each caused inhibition of PI3 kinase isoform […] with IC50 values >1 μM.
(TR-FRET usually uses a lanthanide donor and a delayed reading to cut background.)

Experiment [4] addresses PI3Kα mutation H1047R (Homo sapiens, UniProt P42336, H1047R). Kind of experiment: PI3 Kinase TR-FRET assay, PI3Kα mutation H1047R. Conditions: read-out: inhibition of PI3Kα mutation H1047R, IC50. The experiment is classed as biochemical. The procedure: as §2, §3
(§4) The activity of PI3Kα mutations H1047R and E545K were assayed in a similar manner to the assay protocol described above for PI3Kα (wild type). […]

The target of experiment [5] is PI3Kα mutation E545K (Homo sapiens, UniProt P42336, E545K). The experiment in a line: PI3 Kinase TR-FRET assay, PI3Kα mutation E545K. The experiment is classed as biochemical. The conditions noted are these: read-out: inhibition of PI3Kα mutation E545K, IC50. The procedure: as §2, §3, §4
Setting [6] is: Homo sapiens, PC-3, In-cell Western.

PI3Kα mutation E545K, sequence (P42336 whole entry E545K): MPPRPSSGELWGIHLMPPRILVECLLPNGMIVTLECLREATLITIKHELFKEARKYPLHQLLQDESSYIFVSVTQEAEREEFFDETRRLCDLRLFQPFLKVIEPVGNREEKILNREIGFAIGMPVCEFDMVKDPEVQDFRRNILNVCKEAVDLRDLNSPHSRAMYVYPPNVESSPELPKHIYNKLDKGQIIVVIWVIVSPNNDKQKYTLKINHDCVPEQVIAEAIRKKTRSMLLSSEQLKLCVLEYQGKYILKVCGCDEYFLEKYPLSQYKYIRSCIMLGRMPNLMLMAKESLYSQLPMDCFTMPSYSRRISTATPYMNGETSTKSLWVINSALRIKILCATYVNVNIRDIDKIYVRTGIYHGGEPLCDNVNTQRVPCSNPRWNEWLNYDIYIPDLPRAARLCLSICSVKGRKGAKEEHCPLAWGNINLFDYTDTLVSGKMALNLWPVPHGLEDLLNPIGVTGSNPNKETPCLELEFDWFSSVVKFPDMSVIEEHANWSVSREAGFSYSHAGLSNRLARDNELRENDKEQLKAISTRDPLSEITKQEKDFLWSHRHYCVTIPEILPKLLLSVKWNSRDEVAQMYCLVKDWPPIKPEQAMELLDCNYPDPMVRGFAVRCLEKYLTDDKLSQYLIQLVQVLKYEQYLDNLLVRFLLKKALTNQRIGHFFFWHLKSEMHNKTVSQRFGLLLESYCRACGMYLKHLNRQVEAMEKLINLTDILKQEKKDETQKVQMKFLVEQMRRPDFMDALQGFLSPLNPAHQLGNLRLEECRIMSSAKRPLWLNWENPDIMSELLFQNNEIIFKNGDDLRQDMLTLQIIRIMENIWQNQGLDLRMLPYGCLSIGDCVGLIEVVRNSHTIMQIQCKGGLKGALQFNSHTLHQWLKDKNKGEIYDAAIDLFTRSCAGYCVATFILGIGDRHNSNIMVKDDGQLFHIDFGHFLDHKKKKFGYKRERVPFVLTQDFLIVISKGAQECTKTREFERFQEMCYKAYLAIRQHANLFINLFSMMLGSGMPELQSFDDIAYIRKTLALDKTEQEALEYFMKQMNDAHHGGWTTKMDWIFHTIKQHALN
PI3Kα mutation E545K, sequence (P27986 whole entry partner): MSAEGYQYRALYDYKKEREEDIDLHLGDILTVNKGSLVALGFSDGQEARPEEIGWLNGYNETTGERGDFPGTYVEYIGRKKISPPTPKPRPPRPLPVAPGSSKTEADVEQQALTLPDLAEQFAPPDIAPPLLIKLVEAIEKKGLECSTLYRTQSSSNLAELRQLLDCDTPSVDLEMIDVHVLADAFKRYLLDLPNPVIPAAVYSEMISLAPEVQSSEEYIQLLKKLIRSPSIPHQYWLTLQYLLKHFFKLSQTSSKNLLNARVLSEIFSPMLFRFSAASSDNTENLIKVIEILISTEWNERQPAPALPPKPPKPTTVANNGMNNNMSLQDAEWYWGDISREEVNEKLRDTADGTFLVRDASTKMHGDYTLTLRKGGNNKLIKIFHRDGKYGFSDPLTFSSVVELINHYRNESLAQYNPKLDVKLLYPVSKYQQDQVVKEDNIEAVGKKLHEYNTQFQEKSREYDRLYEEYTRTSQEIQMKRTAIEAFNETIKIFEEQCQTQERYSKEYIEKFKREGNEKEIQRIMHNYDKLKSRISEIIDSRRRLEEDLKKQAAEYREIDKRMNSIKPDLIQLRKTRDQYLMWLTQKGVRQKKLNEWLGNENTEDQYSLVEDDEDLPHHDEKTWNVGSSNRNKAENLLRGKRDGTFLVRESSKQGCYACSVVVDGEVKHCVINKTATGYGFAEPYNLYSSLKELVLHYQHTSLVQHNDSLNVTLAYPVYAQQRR
PI3Kα mutation H1047R, sequence (P42336 whole entry H1047R): as the sequence (P42336 whole entry E545K) above, with K545E, H1047R counted along it
PI3Kα mutation H1047R, sequence (P27986 whole entry partner): as the sequence (P27986 whole entry partner) above
PI3 kinase isoform β, sequence (P42338 whole entry, the tested form may be a part, canonical isoform): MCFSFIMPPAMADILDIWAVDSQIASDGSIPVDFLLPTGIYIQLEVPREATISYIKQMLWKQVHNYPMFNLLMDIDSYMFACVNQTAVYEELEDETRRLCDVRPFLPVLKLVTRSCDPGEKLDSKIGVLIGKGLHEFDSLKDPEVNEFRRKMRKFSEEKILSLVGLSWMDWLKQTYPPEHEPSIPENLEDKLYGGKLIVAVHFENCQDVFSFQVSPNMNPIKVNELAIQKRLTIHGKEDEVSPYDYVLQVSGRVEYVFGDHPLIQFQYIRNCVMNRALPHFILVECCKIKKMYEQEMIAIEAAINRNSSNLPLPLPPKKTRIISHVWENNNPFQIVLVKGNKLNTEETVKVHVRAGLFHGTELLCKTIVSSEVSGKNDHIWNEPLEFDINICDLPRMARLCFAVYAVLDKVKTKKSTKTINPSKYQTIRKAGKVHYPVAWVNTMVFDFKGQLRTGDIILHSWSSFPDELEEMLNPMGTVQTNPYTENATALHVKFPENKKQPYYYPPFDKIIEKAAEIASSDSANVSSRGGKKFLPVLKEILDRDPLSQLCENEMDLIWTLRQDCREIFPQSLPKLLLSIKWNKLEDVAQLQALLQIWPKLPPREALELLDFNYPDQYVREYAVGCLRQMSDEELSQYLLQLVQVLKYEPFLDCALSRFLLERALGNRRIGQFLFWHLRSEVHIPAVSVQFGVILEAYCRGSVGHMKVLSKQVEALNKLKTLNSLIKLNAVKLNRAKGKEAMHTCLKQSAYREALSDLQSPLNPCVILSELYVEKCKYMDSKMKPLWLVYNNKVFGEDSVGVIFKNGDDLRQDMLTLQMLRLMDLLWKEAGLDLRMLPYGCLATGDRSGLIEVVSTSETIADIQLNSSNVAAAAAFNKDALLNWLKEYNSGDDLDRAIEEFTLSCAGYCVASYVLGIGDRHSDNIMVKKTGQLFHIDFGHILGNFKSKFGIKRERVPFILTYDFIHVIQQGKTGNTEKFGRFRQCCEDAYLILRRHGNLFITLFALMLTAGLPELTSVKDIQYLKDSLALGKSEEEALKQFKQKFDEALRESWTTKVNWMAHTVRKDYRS
PI3 kinase isoform β, sequence (P27986 whole entry partner, the tested form may be a part, canonical isoform): as the sequence (P27986 whole entry partner) above

The molecule `CN(C)C(=O)c1ccc(NC(=O)Nc2ccc(-c3nc(N4CCOCC4)c4ccc(-c5ccco5)cc4n3)cc2)cc1` [Example 51, 4-{3-[4-(7-furan-2-yl-4-morpholin-4-yl-quinazolin-2-yl)-phenyl]-ureido}-N,N-dimethyl-benzamide] yielded an IC50 in experiment [1] (In-cell Western) of 501 to 5000 nM.
Regarding `CN(C)C(=O)c1ccc(NC(=O)Nc2ccc(-c3nc(N4CCOCC4)c4ccc(-c5cncnc5)cc4n3)cc2)cc1` [Example 1, N,N-Dimethyl-4-(3-{4-[4-morpholin-4-yl-7-pyrimidin-5-yl-quinazolin-2-yl)-phenyl]-ureido}-benzamide], the figures for the IC50 in experiment [2] and in experiment [1] (setting [6]) were 100 to 500 nM and less than 100 nM, respectively.
In the case of `CN(C)C(=O)c1ccc(NC(=O)Nc2ccc(-c3nc(N4CCOCC4)c4ccc(-c5cncnc5)cc4n3)cc2)c(F)c1` [Example 133, 3-fluoro-N,N-dimethyl-4-(3-(4-(4-morpholino-7-(pyrimidin-5-yl)quinazolin-2-yl)phenyl)ureido)-benzamide], the IC50 in experiment [3] is less than 500 nM; in experiment [4], less than 500 nM; in experiment [5], less than 500 nM; in experiment [2] it was 501 to 5000 nM; in experiment [1] (setting [6]), 201 to 10000 nM.
As to `CN(C)C(=O)c1ccc(NC(=O)Nc2ccc(-c3nc(N4CCOCC4)c4ccc(-c5cccnc5)cc4n3)cc2)c(F)c1` [Example 152, 3-fluoro-N,N-dimethyl-4-(3-(4-(4-morpholino-7-(pyridin-3-yl)quinazolin-2-yl)phenyl)ureido)-benzamide], the IC50 in experiment [3] was less than 500 nM; in experiment [4] it was less than 500 nM; in experiment [5], less than 500 nM; in experiment [2], 501 to 5000 nM.
For the molecule `CN(C)C(=O)c1ccc(NC(=O)Nc2ccc(-c3nc(N4CCOCC4)c4ccc(-c5cccnc5F)cc4n3)cc2)c(F)c1` [Example 146, 3-fluoro-4-(3-(4-(7-(2-fluoropyridin-3-yl)-4-morpholino-quinazolin-2-yl)phenyl)ureido)-N,N-dimethyl-benzamide], the IC50 in experiment [3] is less than 500 nM; in experiment [4], less than 500 nM; in experiment [5], less than 500 nM; in experiment [2], less than 100 nM.
Consider `Cc1ccc(-c2ccc3c(N4CCOCC4)nc(-c4ccc(NC(=O)Nc5ccc(C(=O)N(C)C)cc5)cc4)nc3c2)o1` [Example 2, N,N-Dimethyl-4-(3-{4-[7-(5-methyl-furan-2-yl)-4-morpholin-4-yl-quinazolin-2-yl]-phenyl}-ureido)-benzamide], for which the IC50 in experiment [3] was less than 1000 nM; in experiment [2] it was 100 to 500 nM; in experiment [1] (setting [6]), 100 to 500 nM.
